US20230003721A1, “MITOTHERAPEUTICS FOR THE TREATMENT OF BRAIN DISORDERS” (The University of Florida Research Foundation, Inc., priority 2019, published 2023)
Structures can show the parent of a compound that is named as a salt.

Tests used:
primary neurons = conditions: 75 μM peroxide, 12.5 μM compound, 48 h
[1] = system: isolated forebrain mitochondria; experiment: ATP production of isolated mitochondria (luciferase-based kinetic assay); assay type: biochemical, mouse
Method: Isolation of mitochondria. For the ATP synthesis experiments of FIG. 6, forebrains from P0 pups were dissected as described above. 2×10^7 cells were harvested for high-purity mitochondrial isolation using the Qiagen QProteome kit. The mitochondrial pellet was resuspended in 500 μl mitochondria storage buffer (provided by kit) and kept on ice until further use.
ATP production of isolated forebrain mitochondria of P0 pups was measured by ATP Determination Kit (Molecular Probes). […] The reactions were initiated by the addition of 1 mM ADP (deprived of ATP contamination by adding 3 U/ml hexokinase to 10 mM of ADP in 50 mM Tris-HCl, 20 mM MgCl2 and 22 mM glucose, incubating the solution at 37° C. for 1 hr and heat inactivating the hexokinase at 100° C. for 3 min). Luminescence was recorded every 15-30 sec for 1 hr at 580±40 nm.

Structure (SMILES): CCCCOc1ccc(C(=O)CCN2CCCCC2)cc1 [DYCLONINE HYDROCHLORIDE]
- protection from peroxide (PO) induced mitochondrial fragmentation (primary neurons): fully protected
- ATP production kinetics, amplitude of single exponential fit ([1]; 12 μM, starting 20 min after addition, DMSO 22498±358): 28882±673
- ATP production of isolated mitochondria (direct effect) ([1]; 12.5 μM, within the 45-min measurement period, vs DMSO): significantly increased
